Data from patent US6358999B2, “Use of zinc tranexamate in the treatment of diabetes” (Hamari Chemicals, LTD, priority 2000, dated 2002).

Columns and labels:
[1] = Improvement of insulin resistance in Wistar fatty rats with type II diabetes (glucose loading after 8 weeks); assay type: in vivo; conditions: 150 mg/kg daily p.o. 8 weeks, after glucose 2.5 g/kg
Protocol: Y-4 was orally administered to male Wistar fatty rats (WFR) having tyep II diabetes with obesity and hyperlipidemia at an average daily dose of 150 mg/kg for consecutive 8 weeks. Eight weeks after the initiation of administration, the rats were fasted for 20 hours and then given oral administration of 2.5 g/kg/rat of glucose. Blood samples were collected from the tail vein at 30, 60, 120 and 180 minutes after the administration of glucose for assaying blood sugar and insulin levels. The results are shown in FIG. 3 and FIG. 4, respsectively.

[2] = Suppressive effect on elevation of blood sugar level after sucrose loading in mice; assay type: in vivo
Protocol: Each group consisting of five mice was fasted for 17-24 hours and then Y-4 was orally administered at varying doses.
Mice were orally given 1 g/kg body weight of sucrose 30 minutes after the administration of Y-4 or 2 g/kg body weight of sucrose 2 hours after the administration of Y-4. As in the preceding example, blood samples were collected from the tail end of mice at different time intervals and assayed for blood sugar levels.

[3] = Blood sugar and insulin levels in streptozocin-induced diabetic mice after sucrose loading; assay type: in vivo; conditions: STZ diabetic mice; for Blood sugar level: 200 mg/kg p.o. 30 minutes before sucrose 2 g/kg
Protocol: Experimental diabetes was induced in mice by treating the mice with streptozocin (STZ) (100 mg/kg/day i.p. for two days). After fasting for 17-24 hours, the mice were orally given Y-4 at varying doses 30 minutes before loading 2 g/kg of sucrose. After sucrose loading, blood samples were collected and assayed for blood sugar levels at different time intervals as in the preceding examples.
Similar to the above experiments, Y-4 was orally administered to the mice having experimental diabetes at a dose of 100 mg/kg 30 minutes before loading of 2 g of sucrose. Blood sugar and insulin levels in blood samples collected 30 minutes after sugar loading are shown in FIG. 1 and FIG. 2, respectively.

intestinal α-glucosidase [4] = test: Inhibition of intestinal α-glucosidase activity of normal mouse (intestinal homogenate, glucose production); assay type: biochemical; conditions: for Glucose (glucose production from isomaltose): substrate isomaltose; for Glucose (glucose production from isomaltose) / Glucose (glucose production from maltose) / Glucose (glucose production from sucrose): 37° C., 30 minutes; for Glucose (glucose production from maltose): substrate maltose; for Glucose (glucose production from sucrose): substrate sucrose
Protocol: (§1) Intestinal tract enucleated from a normal mouse was homogenized by the conventional method after removing membrane mucosa. As a substrate, sucrose, starch, maltose or isomaltose was used. The homogenate was incubated with the substrate in the presence of a test compound (Y-4 or zinc chloride) at 37° C. for 30 minutes. The reaction mixture was centrifuged and the glucose concentration in the resulting supernatant was assayed. The glucose assay was conducted calorimetrically by adding a chromogenic reagent (0.47 mol/l of orthotoluidine, 16 mol/l of acetic acid, 10 mmol/l of boric acid) to the supernatant, heating the mixture in a boiling water bath for 8 minutes and measuring the absorbance at 635 nm. α-Glucosidase activity expressed in terms of glucose concentration/mg protein was calculated.

[5] = 1,200 mg/kg orally administered to mice; cited from earlier work
[6] = Suppressive effect on elevation of blood sugar level after glucose loading in mice; assay type: in vivo
Protocol: Each group consisting of five mice was fasted for 17-24 hours and then Y-4 was orally administered at varying doses. After 30 minutes, mice were given glucose orally at a dose of 1 g/kg body weight. Blood samples were collected from the tail end of mice at different time intervals and assayed for blood sugar levels using GLUTEST™ sensor available from Matsushita Kotobuki Electronic Industry Company.

intestinal α-glucosidase [7] = test: Inhibition of intestinal α-glucosidase activity of streptozocin-induced diabetic mouse; assay type: biochemical; conditions: for Glucose (glucose production from maltose) / Glucose (glucose production from sucrose): diabetic mouse; for Glucose (glucose production from maltose): substrate maltose; for Glucose (glucose production from sucrose): substrate sucrose
Protocol: as §1
Example 5 was repeated using intestinal tract enucleated from a diabetic mouse induced by the treatment with streptozocin instead of intestinal tract enucleated from a normal mouse to determine the inhibitory effect of Y-4 on α-glycosidase activity. The intestinal α-glucosidase activity was higher in streptozocin-induced diabetic mouse than in normal mouse. […] The inhibitory effect of Y-4 was more remarkable in the diabetic mouse than in normal mouse.

[8] = 100 mg/kg p.o. 30 minutes before sucrose, 30 minutes after sugar loading

With `NC[C@H]1CC[C@H](C(=O)[O-])CC1.NC[C@H]1CC[C@H](C(=O)[O-])CC1.O.[Zn+2]` [Y-4, zinc tranexamate monohydrate] the “Blood sugar level (FIG. 3)” value [1] was “significantly controlled”, the “Insulin level (FIG. 4)” value [1] was “normalized” and the Blood sugar level ([2]; 50 mg/kg p.o. 30 minutes before sucrose 1 g/kg, 20 min.) was 71.0 ± 5.9 mg/dL. It also gave a Blood sugar level ([2]; 50 mg/kg p.o. 30 minutes before sucrose 1 g/kg, 40 min.) of 90.8 ± 10.0 mg/dL, a Blood sugar level ([2]; 50 mg/kg p.o. 30 minutes before sucrose 1 g/kg, 60 min.) of 76.6 ± 9.9 mg/dL and a Blood sugar level ([2]; 50 mg/kg p.o. 30 minutes before sucrose 1 g/kg, 90 min.) of 68.0 ± 8.1 mg/dL. The “Elevation of blood sugar level after sucrose loading” value ([2]; 100 mg/kg and 200 mg/kg 30 minutes before sucrose loading, up to 90 minutes) was “significant suppressive effect”, the Blood sugar level ([2]; 100 mg/kg p.o. 30 minutes before sucrose 1 g/kg, 20 min.) was 50.8 ± 2.4 mg/dL and the Blood sugar level ([2]; 100 mg/kg p.o. 30 minutes before sucrose 1 g/kg, 40 min.) was 59.3 ± 2.4 mg/dL. For the same compound, the Blood sugar level ([2]; 100 mg/kg p.o. 30 minutes before sucrose 1 g/kg, 60 min.) was 72.9 ± 2.6 mg/dL, the Blood sugar level ([2]; 100 mg/kg p.o. 30 minutes before sucrose 1 g/kg, 90 min.) was 60.6 ± 2.3 mg/dL and the Blood sugar level ([2]; 200 mg/kg p.o. 30 minutes before sucrose 1 g/kg, 20 min.) was 40.4 ± 0.4 mg/dL. For the same compound, the Blood sugar level ([2]; 200 mg/kg p.o. 30 minutes before sucrose 1 g/kg, 40 min.) was 53.2 ± 7.5 mg/dL, the Blood sugar level ([2]; 200 mg/kg p.o. 30 minutes before sucrose 1 g/kg, 60 min.) was 58.2 ± 8.7 mg/dL and the Blood sugar level ([2]; 200 mg/kg p.o. 30 minutes before sucrose 1 g/kg, 90 min.) was 57.6 ± 3.2 mg/dL. It also gave a Blood sugar level ([2]; 200 mg/kg p.o. 2 hours before sucrose 2 g/kg, 20 min.) of 66.2 ± 6.3 mg/dL, a Blood sugar level ([2]; 200 mg/kg p.o. 2 hours before sucrose 2 g/kg, 40 min.) of 84.6 ± 8.9 mg/dL and a Blood sugar level ([2]; 200 mg/kg p.o. 2 hours before sucrose 2 g/kg, 60 min.) of 94.0 ± 18.0 mg/dL. For the same compound, the Blood sugar level ([2]; 200 mg/kg p.o. 2 hours before sucrose 2 g/kg, 90 min.) was 94.4 ± 17.2 mg/dL, the “Blood sugar level (FIG. 1)” value [3, 8] was “suppressed the elevation of blood sugar level almost completely” and the “Insulin level (FIG. 2)” value [3, 8] was “not significantly different from the control value of normal mice group”. The Blood sugar level ([3]; 20 min.) was 96.8 mg/dL, the Blood sugar level ([3]; 40 min.) was 134.2 mg/dL and the Blood sugar level ([3]; 60 min.) was 138.2 mg/dL. For the same compound, the Blood sugar level ([3]; 90 min.) was 137.0 mg/dL, the Blood sugar level ([3]; 180 min.) was 131.8 mg/dL and the “Elevation of blood sugar level after sucrose loading in diabetic mice” value ([3]; 30 minutes before sucrose loading, up to 3 hours) was “remarkably suppressed the elevation of blood sugar level”. For the same compound, the “Glucose (glucose production from isomaltose)” value (intestinal α-glucosidase [4]; inhibitor 5 mM) was 5.009 ± 0.387 mg/mg protein, the “Glucose (glucose production from isomaltose)” value (intestinal α-glucosidase [4]; inhibitor 10 mM) was 4.150 ± 0.351 mg/mg protein and the “Glucose (glucose production from isomaltose)” value (intestinal α-glucosidase [4]; inhibitor 30 mM) was 3.473 ± 0.520 mg/mg protein. The “Glucose (glucose production from isomaltose)” value (intestinal α-glucosidase [4]; inhibitor 50 mM) was 3.158 ± 0.206 mg/mg protein, the “Glucose (glucose production from maltose)” value (intestinal α-glucosidase [4]; inhibitor 5 mM) was 17.956 ± 0.423 mg/mg protein and the “Glucose (glucose production from maltose)” value (intestinal α-glucosidase [4]; inhibitor 10 mM) was 14.810 ± 0.956 mg/mg protein. For the same compound, the “Glucose (glucose production from maltose)” value (intestinal α-glucosidase [4]; inhibitor 30 mM) was 10.963 ± 0.399 mg/mg protein, the “Glucose (glucose production from maltose)” value (intestinal α-glucosidase [4]; inhibitor 50 mM) was 5.353 ± 0.017 mg/mg protein and the “Glucose (glucose production from sucrose)” value (intestinal α-glucosidase [4]; inhibitor 5 mM) was 4.078 ± 0.073 mg/mg protein. The “Glucose (glucose production from sucrose)” value (intestinal α-glucosidase [4]; inhibitor 10 mM) was 1.682 ± 0.097 mg/mg protein, the “Glucose (glucose production from sucrose)” value (intestinal α-glucosidase [4]; inhibitor 30 mM) was 0.726 ± 0.157 mg/mg protein and the “Glucose (glucose production from sucrose)” value (intestinal α-glucosidase [4]; inhibitor 50 mM) was 0.436 ± 0.036 mg/mg protein. For the same compound, the “α-Glucosidase activity, all substrates” value (intestinal α-glucosidase [4]; sucrose, starch, maltose, isomaltose, concentration higher than 5 mM) was “inhibited α-glucosidase activity in the reaction with all substrates”, the “Acute toxicity (death)” value [5] was “no death” and the Blood sugar level ([6]; 50 mg/kg p.o. 30 min before glucose 1 g/kg, 20 min.) was 96.0 ± 3.5 mg/dL. The Blood sugar level ([6]; 50 mg/kg p.o. 30 min before glucose 1 g/kg, 40 min.) was 104.8 ± 7.1 mg/dL, the Blood sugar level ([6]; 50 mg/kg p.o. 30 min before glucose 1 g/kg, 60 min.) was 99.0 ± 14.0 mg/dL and the Blood sugar level ([6]; 50 mg/kg p.o. 30 min before glucose 1 g/kg, 120 min.) was 78.4 ± 6.4 mg/dL. For the same compound, the Blood sugar level ([6]; 50 mg/kg p.o. 30 min before glucose 1 g/kg, 180 min.) was 58.4 ± 6.0 mg/dL, the Blood sugar level ([6]; 100 mg/kg p.o. 30 min before glucose 1 g/kg, 20 min.) was 89.0 ± 2.9 mg/dL and the Blood sugar level ([6]; 100 mg/kg p.o. 30 min before glucose 1 g/kg, 40 min.) was 112.6 ± 5.0 mg/dL. The Blood sugar level ([6]; 100 mg/kg p.o. 30 min before glucose 1 g/kg, 60 min.) was 97.6 ± 0.9 mg/dL, the Blood sugar level ([6]; 100 mg/kg p.o. 30 min before glucose 1 g/kg, 120 min.) was 73.1 ± 2.5 mg/dL and the Blood sugar level ([6]; 100 mg/kg p.o. 30 min before glucose 1 g/kg, 180 min.) was 52.1 ± 1.9 mg/dL. For the same compound, the Blood sugar level ([6]; 200 mg/kg p.o. 30 min before glucose 1 g/kg, 20 min.) was 83.0 ± 4.1 mg/dL, the Blood sugar level ([6]; 200 mg/kg p.o. 30 min before glucose 1 g/kg, 40 min.) was 95.2 ± 3.6 mg/dL and the Blood sugar level ([6]; 200 mg/kg p.o. 30 min before glucose 1 g/kg, 60 min.) was 84.4 ± 2.8 mg/dL. The Blood sugar level ([6]; 200 mg/kg p.o. 30 min before glucose 1 g/kg, 120 min.) was 66.2 ± 3.3 mg/dL, the Blood sugar level ([6]; 200 mg/kg p.o. 30 min before glucose 1 g/kg, 180 min.) was 53.9 ± 2.1 mg/dL and the “Elevation of blood sugar level after glucose loading” value ([6]; varying oral doses 30 minutes before glucose 1 g/kg) was “suppressed elevation of blood sugar level”. The “Glucose (glucose production from maltose)” value (intestinal α-glucosidase [7]; inhibitor 5 mM) was 23.060 ± 1.129 mg/mg protein, the “Glucose (glucose production from maltose)” value (intestinal α-glucosidase [7]; inhibitor 10 mM) was 18.569 ± 1.617 mg/mg protein and the “Glucose (glucose production from maltose)” value (intestinal α-glucosidase [7]; inhibitor 30 mM) was 15.113 ± 0.093 mg/mg protein. For the same compound, the “Glucose (glucose production from maltose)” value (intestinal α-glucosidase [7]; inhibitor 50 mM) was 12.793 ± 0.337 mg/mg protein, the “Glucose (glucose production from sucrose)” value (intestinal α-glucosidase [7]; inhibitor 5 mM) was 10.128 ± 1.137 mg/mg protein and the “Glucose (glucose production from sucrose)” value (intestinal α-glucosidase [7]; inhibitor 10 mM) was 5.312 ± 1.113 mg/mg protein. For the same compound, the “Glucose (glucose production from sucrose)” value (intestinal α-glucosidase [7]; inhibitor 30 mM) was 3.146 ± 0.157 mg/mg protein, the “Glucose (glucose production from sucrose)” value (intestinal α-glucosidase [7]; inhibitor 50 mM) was 2.251 ± 0.327 mg/mg protein and the “Inhibition of intestinal α-glucosidase, all substrates” value (intestinal α-glucosidase [7]; streptozocin-induced diabetic mouse) was “remarkably inhibited”.
